Experimental data from US20110060053A1, “Crystalline Modifications of 6-Dimethylaminomethyl-1-(3-methoxyphenyl)-cyclohexane-1,3-diol” (Gruenenthal GmbH, priority 2002, published 2011).

Experiment: thermodynamic stability of the crystalline modifications
Assay type: physicochemical
Conditions: in particular in the temperature range of −20° C. to 120° C.

Structure (SMILES): COc1cccc([C@@]2(O)C[C@H](O)CC[C@@H]2CN(C)C)c1 (racemic) [Crystalline modification A, (1RS,3RS,6RS)-6-dimethylaminomethyl-1-(3-methoxyphenyl)-cyclohexan-1,3-diol]
- thermodynamic stability: most thermodynamically stable form
